According to patent publication US20210127678A1, “ESTERS OF HETEROCYCLIC COMPOUNDS HAVING A NEMATOCIDAL ACTIVITY, THEIR AGRONOMIC COMPOSITIONS AND THEIR USE” (ISAGRO, S.P.A., priority 2018, published 2021):

System: cucumbers, cv Chinese Long
Experiment: Phytotoxicity on cucumbers, cv Chinese Long (soil treatment of potted plants)
Format: in vivo, cucumber
Conditions: zero=no symptoms, 10=destroyed plant
Protocol: New pots having a diameter of 15 cm were half filled with sterile soil. The portions of infested roots, previously cleaned up, were placed on the same in order to be able to correctly assess the degree of infestation and ensure that each pot contains the same nematic charge. 200-300 g of infested soil were subsequently added, then covered with a thin layer of sterile soil. The treatment was carried out by pouring 100 ml of solution on the surface of the soil, in which the product to be tested was dissolved. Tomato or cucumber seedlings at the stage of two or three true leaves were transplanted in the pots thus prepared, one or seven days after application. Different cultivars of tomato or cucumber were used, having a different sensitivity to the parasite and different growth times. In particular, a variety of ornamental tomatoes (cv Microtom) was used for assessing the final production, whose seedlings are small in size and are able to reach the ripeness of the fruit in pots and under greenhouse conditions in about two months The product was evaluated considering the possible phytotoxic effects that may compromise the development of the plant (in this case a zero-ten scale was used, according to which zero=no symptoms, 10=destroyed plant) and the effectiveness against nematodes. […] 2, 4, 12, 13, 17 included in general formula (I) and CR1, described in JP 2000038379 instead of the compound having general formula (I).

Structure (SMILES)	Phytotoxicity (scale 0-10)
Cc1nnc(C(=O)OCCC(F)=C(F)F)s1 [Comp. Nr. 4, 5-methyl-1,3,4-thiadiazole-2-carboxylate of 3,4,4-trifluoro-3-butenyl]	0
Cn1cc(C(=O)OCCC(F)=C(F)F)c(C(F)F)n1 [Comp. Nr. 13]	0
O=C(OCCC(F)=C(F)F)c1cn2cc(C(F)(F)F)cc(Cl)c2n1 [Comp. Nr. 17]	0
Cc1nc(C(F)F)c(C(=O)OCCC(F)=C(F)F)s1 [Comp. Nr. 2, 2-methyl-4-difluoromethyl-thiazole-5-carboxylate of 3,4,4-trifluoro-3-butenyl]	0
O=C(OCCC(F)=C(F)F)c1cccnc1C(F)(F)F [Comp. Nr. 12]	0
O=C(OCCC(F)=C(F)F)c1cccnc1 [CR1, pyridyl-3-carboxylate of 3,4,4-trifluoro-3-butenyl, reference compound]	0

System: Meloidogyne sp.
Experiment: Determination of nematocidal activity against Meloidogyne sp. on potted cucumbers, cv Chinese Long
Format: in vivo
Conditions: 4,000 g/hectare, 30 days after transplantation
Protocol: Determination of Nematocidal Activity Against Meloidogyne sp. The tests aimed at testing the nematocidal activity of the product under examination were carried out using inoculae taken from a farming of Meloidogyne sp. maintained on potted tomato and cucumber plants and grown in greenhouses. To carry out the experiments, portions of roots having a good number of galls and soil were taken from the infested pots, in which larvae were present starting from the second stage of age. New pots having a diameter of 15 cm were half filled with sterile soil. The portions of infested roots, previously cleaned up, were placed on the same in order to be able to correctly assess the degree of infestation and ensure that each pot contains the same nematic charge. 200-300 g of infested soil were subsequently added, then covered with a thin layer of sterile soil. The treatment was carried out by pouring 100 ml of solution on the surface of the soil, in which the product to be tested was dissolved. Tomato or cucumber seedlings at the stage of two or three true leaves were transplanted in the pots thus prepared, one or seven days after application. Different cultivars of tomato or cucumber were used, having a different sensitivity to the parasite and different growth times. In particular, a variety of ornamental tomatoes (cv Microtom) was used for assessing the final production, whose seedlings are small in size and are able to reach the ripeness of the fruit in pots and under greenhouse conditions in about two months The containment capacity of the parasite was detected, 30 and 60 days after transplantation, considering the development of the root system (where 100% is the development achieved by the healthy comparative root) and the presence of galls on the roots. This was estimated using the infestation scale proposed by Bridge-Page, according to which the value zero corresponds to 0% of the root affected and the value 10 corresponds to 100% of infested root. […] 2, 4, 12, 13, 17 and the Compound CR1, on cucumbers, cv Chinese Long, at a dose of 4,000 g/hectare, effecting the survey 30 days after transplantation. […] 2, 4, 8, 12, 13, 17, 127, 129 and the Compound CR1, on cucumbers, cv Chinese Long, at doses of 2,000 g/hectare, 1,000 g/hectare and 500 g/hectare effecting the survey 30 days after transplantation.

Structure (SMILES)	% INFESTED ROOT
Cc1nnc(C(=O)OCCC(F)=C(F)F)s1 [Comp. Nr. 4, 5-methyl-1,3,4-thiadiazole-2-carboxylate of 3,4,4-trifluoro-3-butenyl]	3%
Cn1cc(C(=O)OCCC(F)=C(F)F)c(C(F)F)n1 [Comp. Nr. 13]	0%
O=C(OCCC(F)=C(F)F)c1cn2cc(C(F)(F)F)cc(Cl)c2n1 [Comp. Nr. 17]	3%
Cc1nc(C(F)F)c(C(=O)OCCC(F)=C(F)F)s1 [Comp. Nr. 2, 2-methyl-4-difluoromethyl-thiazole-5-carboxylate of 3,4,4-trifluoro-3-butenyl]	3%
O=C(OCCC(F)=C(F)F)c1cccnc1C(F)(F)F [Comp. Nr. 12]	0%
O=C(OCCC(F)=C(F)F)c1cccnc1 [CR1, pyridyl-3-carboxylate of 3,4,4-trifluoro-3-butenyl, reference compound]	8%

Same assay, conditions: 4,000 g/hectare, 30 days after transplantation, 100% = healthy comparative root

Structure (SMILES)	ROOT DEVELOPMENT
Cc1nnc(C(=O)OCCC(F)=C(F)F)s1 [Comp. Nr. 4, 5-methyl-1,3,4-thiadiazole-2-carboxylate of 3,4,4-trifluoro-3-butenyl]	90%
Cn1cc(C(=O)OCCC(F)=C(F)F)c(C(F)F)n1 [Comp. Nr. 13]	95%
O=C(OCCC(F)=C(F)F)c1cn2cc(C(F)(F)F)cc(Cl)c2n1 [Comp. Nr. 17]	85%
Cc1nc(C(F)F)c(C(=O)OCCC(F)=C(F)F)s1 [Comp. Nr. 2, 2-methyl-4-difluoromethyl-thiazole-5-carboxylate of 3,4,4-trifluoro-3-butenyl]	90%
O=C(OCCC(F)=C(F)F)c1cccnc1C(F)(F)F [Comp. Nr. 12]	95%
O=C(OCCC(F)=C(F)F)c1cccnc1 [CR1, pyridyl-3-carboxylate of 3,4,4-trifluoro-3-butenyl, reference compound]	70%

Same assay, conditions: 4,000 g/hectare, 30 days after transplantation, Bridge-Page infestation scale

Structure (SMILES)	ALL INDEX scale 0-10
Cc1nnc(C(=O)OCCC(F)=C(F)F)s1 [Comp. Nr. 4, 5-methyl-1,3,4-thiadiazole-2-carboxylate of 3,4,4-trifluoro-3-butenyl]	0.3
Cn1cc(C(=O)OCCC(F)=C(F)F)c(C(F)F)n1 [Comp. Nr. 13]	0
O=C(OCCC(F)=C(F)F)c1cn2cc(C(F)(F)F)cc(Cl)c2n1 [Comp. Nr. 17]	0.3
Cc1nc(C(F)F)c(C(=O)OCCC(F)=C(F)F)s1 [Comp. Nr. 2, 2-methyl-4-difluoromethyl-thiazole-5-carboxylate of 3,4,4-trifluoro-3-butenyl]	0.3
O=C(OCCC(F)=C(F)F)c1cccnc1C(F)(F)F [Comp. Nr. 12]	0
O=C(OCCC(F)=C(F)F)c1cccnc1 [CR1, pyridyl-3-carboxylate of 3,4,4-trifluoro-3-butenyl, reference compound]	0.8

Same assay, conditions: dose applied 0.5 kg ai/ha, 30 days after transplantation

Structure (SMILES)	GALL INDEX (scale 0-10)	WEIGHT OF FRESH PLANT
O=C(OCCC(F)=C(F)F)c1csc(C(F)(F)F)n1 [Comp. Nr. 8]	2.5	25 g
Cc1nnc(C(=O)OCCC(F)=C(F)F)s1 [Comp. Nr. 4, 5-methyl-1,3,4-thiadiazole-2-carboxylate of 3,4,4-trifluoro-3-butenyl]	2.2	35 g
Cn1cc(C(=O)OCCC(F)=C(F)F)c(C(F)F)n1 [Comp. Nr. 13]	2.1	36 g
O=C(OCCC(F)=C(F)F)c1cncnc1 [Comp. Nr. 127]	3.4	26 g
O=C(OCCC(F)=C(F)F)c1cn2cc(C(F)(F)F)cc(Cl)c2n1 [Comp. Nr. 17]	3.3	26 g
Cc1cc(C(=O)OCCC(F)=C(F)F)no1 [Comp. Nr. 129]	3.6	25 g
Cc1nc(C(F)F)c(C(=O)OCCC(F)=C(F)F)s1 [Comp. Nr. 2, 2-methyl-4-difluoromethyl-thiazole-5-carboxylate of 3,4,4-trifluoro-3-butenyl]	2.8	36 g
O=C(OCCC(F)=C(F)F)c1cccnc1C(F)(F)F [Comp. Nr. 12]	3.1	27 g
O=C(OCCC(F)=C(F)F)c1cccnc1 [CR1, pyridyl-3-carboxylate of 3,4,4-trifluoro-3-butenyl, reference compound]	4.8	23 g

Same assay, conditions: dose applied 1 kg ai/ha, 30 days after transplantation

Structure (SMILES)	GALL INDEX (scale 0-10)	WEIGHT OF FRESH PLANT
O=C(OCCC(F)=C(F)F)c1csc(C(F)(F)F)n1 [Comp. Nr. 8]	2.3	27 g
Cc1nnc(C(=O)OCCC(F)=C(F)F)s1 [Comp. Nr. 4, 5-methyl-1,3,4-thiadiazole-2-carboxylate of 3,4,4-trifluoro-3-butenyl]	1.9	37 g
Cn1cc(C(=O)OCCC(F)=C(F)F)c(C(F)F)n1 [Comp. Nr. 13]	1.2	38 g
O=C(OCCC(F)=C(F)F)c1cncnc1 [Comp. Nr. 127]	2.1	29 g
O=C(OCCC(F)=C(F)F)c1cn2cc(C(F)(F)F)cc(Cl)c2n1 [Comp. Nr. 17]	2.8	28 g
Cc1cc(C(=O)OCCC(F)=C(F)F)no1 [Comp. Nr. 129]	2.4	26 g
Cc1nc(C(F)F)c(C(=O)OCCC(F)=C(F)F)s1 [Comp. Nr. 2, 2-methyl-4-difluoromethyl-thiazole-5-carboxylate of 3,4,4-trifluoro-3-butenyl]	2.6	37 g
O=C(OCCC(F)=C(F)F)c1cccnc1C(F)(F)F [Comp. Nr. 12]	2.9	28 g
O=C(OCCC(F)=C(F)F)c1cccnc1 [CR1, pyridyl-3-carboxylate of 3,4,4-trifluoro-3-butenyl, reference compound]	3.5	25 g

Same assay, conditions: dose applied 2 kg ai/ha, 30 days after transplantation

Structure (SMILES)	GALL INDEX (scale 0-10)	WEIGHT OF FRESH PLANT
O=C(OCCC(F)=C(F)F)c1csc(C(F)(F)F)n1 [Comp. Nr. 8]	1.2	37 g
Cc1nnc(C(=O)OCCC(F)=C(F)F)s1 [Comp. Nr. 4, 5-methyl-1,3,4-thiadiazole-2-carboxylate of 3,4,4-trifluoro-3-butenyl]	1.9	34 g
Cn1cc(C(=O)OCCC(F)=C(F)F)c(C(F)F)n1 [Comp. Nr. 13]	1.2	39 g
O=C(OCCC(F)=C(F)F)c1cncnc1 [Comp. Nr. 127]	0.9	36 g
O=C(OCCC(F)=C(F)F)c1cn2cc(C(F)(F)F)cc(Cl)c2n1 [Comp. Nr. 17]	2.2	31 g
Cc1cc(C(=O)OCCC(F)=C(F)F)no1 [Comp. Nr. 129]	0.9	35 g
Cc1nc(C(F)F)c(C(=O)OCCC(F)=C(F)F)s1 [Comp. Nr. 2, 2-methyl-4-difluoromethyl-thiazole-5-carboxylate of 3,4,4-trifluoro-3-butenyl]	1.4	35 g
O=C(OCCC(F)=C(F)F)c1cccnc1C(F)(F)F [Comp. Nr. 12]	2.1	31 g
O=C(OCCC(F)=C(F)F)c1cccnc1 [CR1, pyridyl-3-carboxylate of 3,4,4-trifluoro-3-butenyl, reference compound]	2.8	30 g
